The record followed here is article PMC9882058 (bioRxiv, 2023).

The test addresses TcdA (Clostridioides difficile, UniProt P16154). The conditions noted are these: peptides on beads; 0.2 µM TcdA-AF594; qualitative.

Sequence of TcdA (P16154 whole entry, looked up): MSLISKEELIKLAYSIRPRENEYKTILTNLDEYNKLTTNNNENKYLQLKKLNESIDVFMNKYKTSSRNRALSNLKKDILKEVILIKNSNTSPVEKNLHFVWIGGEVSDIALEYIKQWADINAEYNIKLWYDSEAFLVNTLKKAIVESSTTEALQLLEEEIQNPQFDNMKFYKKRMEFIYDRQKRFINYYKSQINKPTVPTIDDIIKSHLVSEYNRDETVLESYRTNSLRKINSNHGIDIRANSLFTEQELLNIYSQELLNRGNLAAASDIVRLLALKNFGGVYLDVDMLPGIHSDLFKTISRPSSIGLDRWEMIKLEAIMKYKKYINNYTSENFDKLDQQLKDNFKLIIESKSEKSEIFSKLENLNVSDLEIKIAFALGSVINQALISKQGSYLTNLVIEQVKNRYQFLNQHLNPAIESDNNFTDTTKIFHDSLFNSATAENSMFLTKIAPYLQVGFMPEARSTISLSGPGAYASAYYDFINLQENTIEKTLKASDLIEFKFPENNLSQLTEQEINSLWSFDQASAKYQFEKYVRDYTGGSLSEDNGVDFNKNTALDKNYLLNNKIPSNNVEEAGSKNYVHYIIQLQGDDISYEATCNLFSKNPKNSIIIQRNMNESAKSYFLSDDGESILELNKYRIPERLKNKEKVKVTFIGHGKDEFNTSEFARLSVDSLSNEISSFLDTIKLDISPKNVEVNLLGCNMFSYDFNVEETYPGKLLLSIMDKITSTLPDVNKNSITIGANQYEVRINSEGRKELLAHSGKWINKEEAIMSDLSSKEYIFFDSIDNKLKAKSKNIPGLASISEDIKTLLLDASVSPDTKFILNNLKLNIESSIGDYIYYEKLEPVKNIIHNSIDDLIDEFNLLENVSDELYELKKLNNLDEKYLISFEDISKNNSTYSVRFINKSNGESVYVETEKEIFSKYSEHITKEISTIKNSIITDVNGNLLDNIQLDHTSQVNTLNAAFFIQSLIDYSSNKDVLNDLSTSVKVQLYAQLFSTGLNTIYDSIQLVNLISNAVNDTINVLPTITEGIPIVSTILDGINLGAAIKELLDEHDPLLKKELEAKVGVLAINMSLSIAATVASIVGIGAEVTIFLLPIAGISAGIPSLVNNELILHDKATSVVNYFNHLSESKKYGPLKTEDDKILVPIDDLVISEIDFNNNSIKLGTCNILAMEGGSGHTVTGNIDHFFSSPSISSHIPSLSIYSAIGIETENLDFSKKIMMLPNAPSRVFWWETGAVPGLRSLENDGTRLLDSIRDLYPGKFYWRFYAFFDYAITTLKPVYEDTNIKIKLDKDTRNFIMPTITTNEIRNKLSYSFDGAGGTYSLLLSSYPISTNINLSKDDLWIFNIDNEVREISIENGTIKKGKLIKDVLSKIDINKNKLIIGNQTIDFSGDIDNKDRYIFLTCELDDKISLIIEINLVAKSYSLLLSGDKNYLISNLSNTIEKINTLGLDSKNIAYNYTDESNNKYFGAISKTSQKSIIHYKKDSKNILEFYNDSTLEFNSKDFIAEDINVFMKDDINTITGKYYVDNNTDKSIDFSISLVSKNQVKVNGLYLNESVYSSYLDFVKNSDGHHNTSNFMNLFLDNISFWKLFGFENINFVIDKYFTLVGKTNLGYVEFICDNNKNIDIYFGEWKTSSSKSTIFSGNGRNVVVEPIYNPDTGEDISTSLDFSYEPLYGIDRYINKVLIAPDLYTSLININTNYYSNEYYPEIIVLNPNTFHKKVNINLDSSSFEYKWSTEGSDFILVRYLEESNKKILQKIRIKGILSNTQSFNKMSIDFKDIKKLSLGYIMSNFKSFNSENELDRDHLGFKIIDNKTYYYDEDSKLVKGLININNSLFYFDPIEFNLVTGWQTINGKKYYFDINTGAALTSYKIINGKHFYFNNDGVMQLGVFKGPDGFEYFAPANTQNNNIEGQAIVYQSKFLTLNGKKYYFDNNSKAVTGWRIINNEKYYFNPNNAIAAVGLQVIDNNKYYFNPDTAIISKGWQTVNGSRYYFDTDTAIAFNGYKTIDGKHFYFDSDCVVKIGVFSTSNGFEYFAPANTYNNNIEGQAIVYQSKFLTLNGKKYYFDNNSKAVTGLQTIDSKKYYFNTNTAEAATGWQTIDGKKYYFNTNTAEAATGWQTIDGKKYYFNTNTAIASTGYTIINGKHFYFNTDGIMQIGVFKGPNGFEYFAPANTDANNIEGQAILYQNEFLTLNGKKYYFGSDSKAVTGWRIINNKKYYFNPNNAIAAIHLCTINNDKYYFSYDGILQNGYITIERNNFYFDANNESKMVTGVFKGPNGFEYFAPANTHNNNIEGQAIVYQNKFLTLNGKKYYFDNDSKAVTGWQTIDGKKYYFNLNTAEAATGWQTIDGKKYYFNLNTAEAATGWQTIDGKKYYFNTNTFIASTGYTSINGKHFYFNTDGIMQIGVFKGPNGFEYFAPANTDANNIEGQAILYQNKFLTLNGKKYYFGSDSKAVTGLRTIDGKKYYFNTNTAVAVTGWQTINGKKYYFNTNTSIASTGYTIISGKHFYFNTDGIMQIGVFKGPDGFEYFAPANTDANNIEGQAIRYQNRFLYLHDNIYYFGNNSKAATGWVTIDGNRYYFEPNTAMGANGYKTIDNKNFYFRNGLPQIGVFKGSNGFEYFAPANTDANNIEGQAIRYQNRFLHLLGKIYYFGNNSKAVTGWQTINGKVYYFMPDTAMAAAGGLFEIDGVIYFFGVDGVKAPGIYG

Take EFWMGRHH [SA5]: the “TcdA binding performance in bead-based screen” value (shortened to “TcdA binding performance”) is on record as “performed significantly better than those from Case 3 (SA6, SA7)”.

MFWEHRHR [SA4]: the “TcdA binding performance” value is “performed significantly better than those from Case 3 (SA6, SA7)”.

Take QDWMRRHW [SA2]: the “TcdA binding performance” value was “performed significantly better than those from Case 3 (SA6, SA7)”.
